Experimental data taken from patent US20190079075A1, “PHARMECEUTICAL COMPOSITION FOR LUNG CANCER TREATMENT AND METHODS FOR PROVIDING INFORMATION AND SCREENING” (DONG-A UNIVERSITY RESEARCH FOUNDATION FOR INDUSTRY-ACADEMY …, priority 2015, published 2019).

Key:
[1] = target: T1, SIRT1 (Homo sapiens, UniProt Q96EB6); test: XPA acetylation by immunoprecipitation of XPA and immunoblotting with anti-acetyl-lysine antibody; type: cell-based; details: UV-PreC cells pretreated with EX527 for 5 h before cisplatin treatment; FIG. 8B
T1 sequence (Q96EB6 1-747): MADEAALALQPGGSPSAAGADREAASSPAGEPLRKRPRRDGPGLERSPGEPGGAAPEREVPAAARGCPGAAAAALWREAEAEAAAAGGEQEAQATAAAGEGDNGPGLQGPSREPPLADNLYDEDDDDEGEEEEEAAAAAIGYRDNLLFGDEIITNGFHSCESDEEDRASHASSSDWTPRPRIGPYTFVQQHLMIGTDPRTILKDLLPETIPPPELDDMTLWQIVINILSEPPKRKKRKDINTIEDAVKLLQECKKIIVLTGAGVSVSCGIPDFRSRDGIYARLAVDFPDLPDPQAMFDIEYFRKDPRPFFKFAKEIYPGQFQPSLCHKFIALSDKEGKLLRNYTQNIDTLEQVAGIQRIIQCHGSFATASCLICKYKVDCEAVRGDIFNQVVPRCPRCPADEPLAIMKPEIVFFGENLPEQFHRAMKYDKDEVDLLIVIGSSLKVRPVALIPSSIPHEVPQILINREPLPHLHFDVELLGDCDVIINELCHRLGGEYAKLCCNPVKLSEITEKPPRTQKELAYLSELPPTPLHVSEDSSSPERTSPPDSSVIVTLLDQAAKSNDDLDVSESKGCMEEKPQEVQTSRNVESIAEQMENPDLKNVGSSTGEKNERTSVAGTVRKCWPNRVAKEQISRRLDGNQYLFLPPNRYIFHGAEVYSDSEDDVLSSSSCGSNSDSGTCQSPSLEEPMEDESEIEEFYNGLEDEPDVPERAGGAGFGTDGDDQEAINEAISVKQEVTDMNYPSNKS

[2] = test system: lung cancer cells; test: Local UV irradiation and immunofluorescence (6-4PP repair kinetics, XPA foci); type: cell-based, human; details: for XPA foci-positive cells, Pt-PreC vs nonPreC: FIG. 7B
Protocol: Results are presented as mean±SD from three independent experiments. Differences were considered significant at the value of P<0.01 (**). FIGS. 8A to 8D show the upregulation of SIRT1 expression during PreC. […] GAPDH was used as a loading control. […] Histone H3 was used to indicate chromatin-enriched fraction. […] 60 minutes after local UV irradiation the 6-4PP foci-positive cells were counted from randomly selected 1000 cells in each sample. The bars and error bars represent the mean±s.d from three independent experiments. Differences were considered significant at the value of P<0.001 (***). […] After incubation for the recovery times the cells were fixed in 4% paraformaldehyde for 15 min, followed by conventional immunofluorescence staining procedures. UV-induced lesions were counter-labeled with anti-6-4PP antibody, and XPA foci-positive cells were counted for quantitative analysis. The images were captured using Nikon imaging software NIS-Elements 4.0.

[3] = target: T1, SIRT1; test: XPA loading to chromatin (chromatin-enriched fraction, immunoblotting); details: EX527 pretreatment before cisplatin following UV-PreC; FIG. 8B
[4] = test system: lung cancer cells; test: Immunoslot blotting of residual UV-induced CPDs after cisplatin preconditioning; type: cell-based, human; details: preconditioning with 5 μM cisplatin; 5 or 10 J/m^2 UV; FIGS. 3B and 3C
Protocol: FIGS. 3A to 3C show the enhanced UV-induced CPD repair activity following Pt-PreC. […] After immunoslot blotting the membrane was counterstained with SYBR-Gold for a loading control of genomic DNA. 5 J/m^2 (FIG. 3B) or 10 J/m^2 (FIG. 3C) of UV-induced CPD repair kinetics were measured from cells conditioned with nonPreC or Pt-PreC.
(§1) A549 and H460 cells (American Type Culture Collection, Manassas, Va., USA) were cultured in Dulbecco's modified Eagle medium supplemented with 10% fetal bovine serum and 1% penicillin-streptomycin. 100% confluent cells were kept for additional four days to completely block cell proliferation and then exposed to the UV light using a germicidal lamp (for immunoslot blotting) or UV crosslinker (for immunofluorescence) emitting primarily UV-C light. A UV-C sensor (UV Products, Upland, Calif., USA) was used to calibrate the fluence rate of the incident light. For immunofluorescence staining, cells were grown on a glass coverslip coated with poly-D-lysine and laminin (BD Biosciences, San Jose, Calif., USA). For assessment of cell viability, CellTiter-Fluor Cell Viability Assay kit (Promega, Madison, Wis., USA) was used as indicated in manufacturer's protocol. Fluorescence plate reader (BIORAD, Hercules, Calif., USA) was used to measure a constitutive protease activity within live cells using a fluorogenic and cell permeable peptide substrate. […]

[5] = test system: lung cancer cells; test: Immunoslot blotting of Pt-GpG adduct removal after cisplatin preconditioning; type: cell-based, human
Protocol: as §1, with “FIGS. 4A and 4B show the enhanced Pt-GpG diadduct removal by Pt-PreC. […] The bars and error bars represent the mean±s.d from three independent experiments. A549” for “A549”

[6] = test system: 6-4PP-containing DNA substrate; test: Dual-incision NER activity assay with lysate of Pt-PreC cells; type: cell-based, human; details: FIG. 5
Protocol: Dual-incision NER activity assay was performed using isotope-labeled and 6-4PP-containing linear substrate DNA and cell lysates obtained from nonPreC and Pt-PreC cells at the indicated times after PreC. Amount of excision product was used as a measure of the NER capacity of the lysate. Results are presented as mean±SD from three independent experiments. Differences were considered significant at the values of P<0.01 (**) and P<0.001 (***). Assay of NER activity in the cell lysate toward 6-4PP-containing DNA substrate was carried out. Briefly, 10 fmol of 140-bp duplex with a 6-4PP in the center and ^32P-label at the 5th phosphodiester bond 5′ to the site of the lesion was incubated with 70 μg of lysate in 25 μL of excision buffer at 30° C. for 1 h. The amount of excision product was used as a measure of NER capacity in the lysate. The 6-4PP-containing linear duplex substrate DNA and NER-competent cell lysate were prepared.

effect on the UV-PreC-induced decrease in acetylation level of XPA [1]	effect on UV-PreC-induced enhancement of XPA chromatin loading [3]	SMILES	effect on PreC-induced repair capacity (6-4PP repair kinetics) ([2]; 1 μM EX-527 for 5 h before local UV irradiation, 6-4PP foci-positive cells counted 60 min after UV, FIG. 8C)	6-4PP removal, Pt-PreC vs nonPreC control ([2]; 200 J/m^2 local UV irradiation, FIG. 7A)	XPA foci-positive cells, Pt-PreC vs nonPreC ([2]; 60 min after UV exposure)	XPA foci-positive cells, Pt-PreC vs nonPreC ([2]; within 30 min of recovery time)	kinetics of CPD repair after the same dose of UV, preconditioned vs nonPreC [4]	remaining Pt-GpG adduct after Pt-PreC ([5]; 48 h after Pt-PreC with 5 μM of cisplatin, FIG. 4A)	Pt-GpG repair kinetics upon following cisplatin treatment, Pt-PreC vs nonPreC ([5]; Pt-PreC 5 μM, then 10 μM cisplatin, FIG. 4B)	time after PreC at which NER activity peaked [6] [h]	time after PreC at which NER activity started to increase [6] [h]	time after PreC at which enhancement of NER capacity was no longer detected [6] [h]
immediately reversed	reduced in the presence of EX527	NC(=O)C1CCCc2c1[nH]c1ccc(Cl)cc21 (stereo not drawn) [EX527, 6-chloro-2,3,4,9-tetrahydro-1H-carbazole-1-carboxamide]	compromised by SIRT1 inhibition	–	–	–	–	–	–	–	–	–
–	–	N.N.[Cl][Pt][Cl] [cisplatin]	–	accelerated the 6-4PP removal	approximately 3 times less	no difference	much faster	no remaining Pt-GpG adduct	much faster	48	12	72
